Results from patent publication US11731946B2, “Broad spectrum antivirulence, anti-persistence compounds” (priority 2017, dated 2023).

Columns and labels:
MvfR regulon [1] = assay: Quantification of pyocyanin (OD520nm of chloroform-extracted cultures); format: cell-based, P. aeruginosa; details: for activity at 1 µM: read-out: pyocyanin @1 uM (%), compound at 1 uM; for activity at 10 µM: read-out: pyocyanin @10 uM (%), compound at 10 uM; for activity at 50 µM: read-out: pyocyanin @50 uM (%), compound at 50 uM; for pyocyanin @50 uM (%): compound at 50 uM
MvfR regulon [2] = assay: pqsA gene expression (pqsA-GFP reporter); format: cell-based, P. aeruginosa; details: for activity at 10 µM: read-out: pqsA @10 uM (%), compound at 10 uM; for activity at 50 µM: read-out: pqsA @50 uM (%), compound at 50 uM
Experimental: Experiments were performed to identify compounds that inhibit the MvfR regulon without altering growth, ultimately attenuating P. aeruginosa infection. MvfR is a LysR-type transcriptional regulator that directs HAQs synthesis, including that of its ligands, 4-hydroxy-2-heptylquinoline (HHQ) and 3,4-dihydroxy-2-heptylquinoline (PQS).
MvfR promotes the production of HAQs by binding to and activating the pqs operon, which encodes enzymes for HAQ synthesis. Anthranilic acid (AA), derived from the phnAB, kynABU, and trpEG pathways, is the precursor for HAQs. pqsA encodes an anthranilate-coenzyme A ligase, which activates anthranilic acid and catalyzes the first committed step to HAQ production. The exact roles of PqsB and PqsC are unknown, though both show homology to acyl-carrier-proteins and both are required for HHQ and PQS production. […] The final gene of the operon, pqsE encodes for a putative hydrolase, and while the protein is not required for the synthesis of HAQs, it is necessary for pyocyanin production.
Nanomolar levels of most of these MvfR antagonists impeded the activity of MvfR and in consequence the MvfR virulence regulated ACRP functions, including: (1) the production of the important pro-acute P. aeruginosa virulence factor pyocyanin (see e.g., FIG. 9A) the efficacy of two of these potent inhibitors, D57 and D88, was also confirmed by testing many different MDR P. aeruginosa clinical isolates (see e.g., FIG. 11A-11B), providing further confidence of their inhibitory potency; (2) the expression of the genes that encode the enzymes catalyzing the synthesis of both pro-acute and pro-persistence MvfR-regulated virulence molecules, 4-hydroxyl-2-alkyl-quinolines (HAQs) and 2-aminoacetophenon (2-AA), as assessed by pqsAGFP reporter gene expression (see e.g., FIG. 9B) and HAQ production showing the levels of MvfR inducers/ligands HHQ and PQS as well as of the molecules critical for biofilm and Antibiotic tolerant/persiters cells formation HQNO and 2-AA (see e.g., FIG. 9C); (3) AT/P cell formation (see e.g., FIGS. 11A, 12A); (4) biofilm formation (see e.g., FIG. 12B); and (5) biofilm dispersal of preformed biofilm by potentiating antibiotic action (see e.g., FIG. 11B).

[3] = Pseudomonas aeruginosa, read-out: IC50 pyocyanin (μM)

SMILES	activity at 50 µM (MvfR regulon [1]; Pseudomonas aeruginosa) [%]	activity at 10 µM (MvfR regulon [2]; Pseudomonas aeruginosa) [%]	activity at 50 µM (MvfR regulon [2]; Pseudomonas aeruginosa) [%]	further results
N#Cc1ccc(NC(=O)C[C@H](Nc2ccc(Oc3ccccc3)cc2)C(F)(F)F)cc1 (racemic) [Compound 108]	91	87	88.4	activity at 1 µM (MvfR regulon [1]; Pseudomonas aeruginosa): 91.9%; activity at 10 µM (MvfR regulon [1]; Pseudomonas aeruginosa): 76.8%
O=C(Nc1ccc(Oc2ccccc2)cc1)[C@@H](F)C(=O)Nc1ccc(C(F)(F)F)cc1 (racemic) [Compound 115]	7.08	1.05	1.75	activity at 1 µM (MvfR regulon [1]; Pseudomonas aeruginosa): 27.1%; activity at 10 µM (MvfR regulon [1]; Pseudomonas aeruginosa): 11.4%
Cc1cc(F)ccc1NC(C)C(=O)Nc1ccc(C#N)cc1 (centres unmarked) [Compound 13]				pyocyanin @50 uM (%) (MvfR regulon [1]; listed as D1): 101.56%; pqsA @50 uM (%) (MvfR regulon [2]; compound at 50 uM, listed as D1): 88.58%
Cc1cc(F)ccc1NCC(=O)Nc1ccccc1Br [Compound 14]	101		96.2	
CCc1ccccc1NCC(=O)Nc1ccc(C#N)cc1 [Compound 15]	97.3		92	
N#Cc1ccc(NC(=O)CNc2ccc(F)cc2F)cc1 [Compound 16]	89.1		56.3	
Cc1cc(F)ccc1NCC(=O)Nc1ccc(N2CCOCC2)cc1 [Compound 17]	102		99.8	
N#Cc1ccc(NC(=O)CNc2cccc(F)c2)cc1 [Compound 18]	91.3		68	
Cc1cc(F)ccc1NCC(=O)Nc1ccc(Br)cc1C [Compound 19]	88.7		70	
CC(=O)c1ccc(NC(=O)CNc2ccc(F)cc2C)cc1 [Compound 20]	102		97.7	
Cc1cc(F)ccc1NCC(=O)Nc1ccc(N2CCCC2=O)cc1 [Compound 21]	107		105	
Cc1cc(F)ccc1NCC(=O)Nc1c(F)cccc1F [Compound 22]	89.9		89.2	
CNC(=O)NC(=O)CNc1ccc(F)cc1C [Compound 23]	101		97	
Cc1ccc(NC(=O)CNc2ccc(F)cc2C)c(Br)c1 [Compound 24]	108		92.3	
Cc1cc(F)ccc1NCC(=O)Nc1cccc(C#N)c1 [Compound 25]	100		90.2	
Cc1cc(F)ccc1NCC(=O)Nc1cccc([N+](=O)[O-])c1 [Compound 26]	85.2		76.5	
COc1ccc(NC(=O)CNc2ccc(F)cc2C)cc1 [Compound 27]	102		86.9	
N#Cc1ccc(NC(=O)CNc2ccc(Cl)cc2)cc1 [Compound 28]	43.2		17.7	IC50 (MvfR regulon [1]; [3]): 20.4 µM; IC50 (MvfR regulon [2]; Pseudomonas aeruginosa, read-out: IC50 pqsA (μM)): 24.6 µM
Cc1cc(F)ccc1NCC(=O)NCC(F)(F)F [Compound 29]	110		70	
Cc1ccc(F)cc1NCC(=O)Nc1ccc(C#N)cc1 [Compound 30]	68.5		28.1	
Cc1cc(F)ccc1NCC(=O)Nc1ccc(C(=O)N(C)C)cc1 [Compound 31]	109		99.8	
Cc1ccc(NCC(=O)N(C)c2ccccc2)c(C)c1 [Compound 32]	111		88	
Cc1ccc(NC(=O)CNc2ccc(F)cc2C)c(C)c1 [Compound 33]	112		87.3	
Cc1cc(F)ccc1NCC(=O)Nc1cccc(Cl)c1 [Compound 34]	96.1		70.9	
Cc1cc(F)ccc1NCC(=O)NC1CC1 [Compound 35]	107		92.5	
N#Cc1ccc(NCC(=O)Nc2ccc(F)cc2)cc1 [Compound 36]	59.1		25.5	

SMILES	activity at 50 µM (MvfR regulon [1]; Pseudomonas aeruginosa) [%]	activity at 10 µM (MvfR regulon [2]; Pseudomonas aeruginosa) [%]	activity at 50 µM (MvfR regulon [2]; Pseudomonas aeruginosa) [%]	further results
N#Cc1ccc(NC(=O)CNc2ccccc2F)cc1 [Compound 37]	97.3		84	
Cc1ccccc1NCC(=O)Nc1ccccc1 [Compound 38]	102		95.4	
CC(=O)Nc1cccc(NCC(=O)Nc2ccc(C#N)cc2)c1C [Compound 39]	93.4		99.5	
Cc1ccc(NCC(=O)Nc2ccc(C#N)cc2)cc1F [Compound 40]	59.5		42	
Cc1ccc(NCC(=O)Nc2ccccc2)c(C)c1 [Compound 41]	94.5		92.8	
CC(=O)c1ccccc1NC(=O)CNc1ccc(F)cc1C [Compound 42]	91.4		94.2	
Cc1cc(NC(=O)CNc2ccc(F)cc2C)ccc1Br [Compound 43]	68.5		47	
COc1cccc(NC(=O)CNc2ccc(F)cc2C)c1 [Compound 44]	92.2		93.7	
CC(C)c1ccc(NCC(=O)Nc2ccc(C#N)cc2)cc1 [Compound 45]	59.1		52.8	
N#Cc1ccc(NC(=O)CC(=O)Nc2ccccc2Br)cc1 [Compound 55]	86.3	94		activity at 1 µM (MvfR regulon [1]; Pseudomonas aeruginosa): 99%; activity at 10 µM (MvfR regulon [1]; Pseudomonas aeruginosa): 70.7%
N#Cc1ccc(NC(=O)CC(=O)Nc2cccc(Br)c2)cc1 [Compound 56]	17.2	64.2		activity at 1 µM (MvfR regulon [1]; Pseudomonas aeruginosa): 79.9%; activity at 10 µM (MvfR regulon [1]; Pseudomonas aeruginosa): 41.4%
N#Cc1ccc(NC(=O)CC(=O)Nc2ccc([N+](=O)[O-])cc2)cc1 [Compound 66]		1.51		pyocyanin @1 uM (%) (MvfR regulon [1]; compound at 1 uM, listed as D51P): 61.28%; pyocyanin @10 uM (%) (MvfR regulon [1]; compound at 10 uM, listed as D51P): 24.86%; pyocyanin @50 uM (%) (MvfR regulon [1]; listed as D51P): 4.00%; IC50 (MvfR regulon [1]; read-out: IC50 pyocyanin): 0.84 µM
O=C(CC(=O)Nc1ccc(Oc2ccccc2)cc1)Nc1ccc(I)cc1 [Compound 74]	71.8	86	81.2	
Nc1cc([N+](=O)[O-])ccc1NC(=O)CC(=O)Nc1ccc(Oc2ccccc2)cc1 [Compound 75]	6.13	9.83		
O=C(CC(=O)Nc1ccc(Oc2ccccc2)cc1)Nc1ccc(Br)cc1 [Compound 79]	47.7	64.5	60.5	
O=C(CC(=O)Nc1ccc(Oc2ccccc2)cc1)Nc1ccc(Cl)cc1 [Compound 82]	26	28.8		IC50 (MvfR regulon [1]; [3]): 0.09 µM; activity at 1 µM (MvfR regulon [1]; Pseudomonas aeruginosa): 40.3%; activity at 10 µM (MvfR regulon [1]; Pseudomonas aeruginosa): 39.9%
O=C(CC(=O)Nc1ccc(Oc2ccccc2)cc1)Nc1ccc(F)cc1 [Compound 83]	33.5	27.7		IC50 (MvfR regulon [1]; [3]): 0.83 µM; activity at 1 µM (MvfR regulon [1]; Pseudomonas aeruginosa): 44.7%; activity at 10 µM (MvfR regulon [1]; Pseudomonas aeruginosa): 41.3%
N#Cc1ccc(NC(=O)CC(=O)Nc2ccc(C(F)(F)F)cc2)cc1 [Compound 84]	6.1	6.98		IC50 (MvfR regulon [1]; [3]): 0.45 µM; activity at 1 µM (MvfR regulon [1]; Pseudomonas aeruginosa): 46.8%; activity at 10 µM (MvfR regulon [1]; Pseudomonas aeruginosa): 6.98%
Cc1cccc(NC(=O)CC(=O)Nc2ccc(C#N)cc2)c1 [Compound 85]	49.7	84.8		activity at 1 µM (MvfR regulon [1]; Pseudomonas aeruginosa): 94%; activity at 10 µM (MvfR regulon [1]; Pseudomonas aeruginosa): 75.3%
N#Cc1ccc(NC(=O)CC(=O)Nc2cccc(Cl)c2)cc1 [Compound 86]	12.5	59.8		IC50 (MvfR regulon [1]; [3]): 1.54 µM; activity at 1 µM (MvfR regulon [1]; Pseudomonas aeruginosa): 83.2%; activity at 10 µM (MvfR regulon [1]; Pseudomonas aeruginosa): 45.4%
N#Cc1ccc(NC(=O)CC(=O)Nc2cccc(F)c2)cc1 [Compound 87]	30.2	77.8		activity at 1 µM (MvfR regulon [1]; Pseudomonas aeruginosa): 94.6%; activity at 10 µM (MvfR regulon [1]; Pseudomonas aeruginosa): 65.5%
N#Cc1ccc(NC(=O)CC(=O)Nc2ccc(F)cn2)cc1 [Compound 88]	48.3	95.1		activity at 1 µM (MvfR regulon [1]; Pseudomonas aeruginosa): 97%; activity at 10 µM (MvfR regulon [1]; Pseudomonas aeruginosa): 77.7%
CN(C(=O)CC(=O)Nc1ccc(C#N)cc1)c1ccc(C#N)cc1 [Compound 89]	84.8	98.5		activity at 1 µM (MvfR regulon [1]; Pseudomonas aeruginosa): 95.7%; activity at 10 µM (MvfR regulon [1]; Pseudomonas aeruginosa): 102%
N#Cc1ccc(NC(=O)CC(=O)Nc2cccc(C#N)c2)cc1 [Compound 90]	49.4	97.2		activity at 1 µM (MvfR regulon [1]; Pseudomonas aeruginosa): 91.8%; activity at 10 µM (MvfR regulon [1]; Pseudomonas aeruginosa): 88.5%
N#Cc1ccc(NC(=O)CC(=O)c2ccc(F)cc2)cc1 [Compound 91]	77.1	87.4		activity at 1 µM (MvfR regulon [1]; Pseudomonas aeruginosa): 99.2%; activity at 10 µM (MvfR regulon [1]; Pseudomonas aeruginosa): 98.3%
